Calls of active or inactive are those of the source. The rule behind the calls is not given here.
Legend:
[1] = biological target: Cellular tumor antigen p53 (Homo sapiens) (UniProt P04637); assay: Inhibition of p53 in human MOLT-4 cells assessed as suppression of gamma-irradiation-induced decrease in cell viability at 50 to 100 uM preincubated for 1 hr followed by 10 Gy 137Cs gamma-ray exposure and measured after 27 hrs by erythrosin B staining based dye exclusion assay; conditions: dose 50-100 µM, time 28.0 hrs
Cellular tumor antigen p53 (Homo sapiens), sequence (P04637 whole entry, looked up): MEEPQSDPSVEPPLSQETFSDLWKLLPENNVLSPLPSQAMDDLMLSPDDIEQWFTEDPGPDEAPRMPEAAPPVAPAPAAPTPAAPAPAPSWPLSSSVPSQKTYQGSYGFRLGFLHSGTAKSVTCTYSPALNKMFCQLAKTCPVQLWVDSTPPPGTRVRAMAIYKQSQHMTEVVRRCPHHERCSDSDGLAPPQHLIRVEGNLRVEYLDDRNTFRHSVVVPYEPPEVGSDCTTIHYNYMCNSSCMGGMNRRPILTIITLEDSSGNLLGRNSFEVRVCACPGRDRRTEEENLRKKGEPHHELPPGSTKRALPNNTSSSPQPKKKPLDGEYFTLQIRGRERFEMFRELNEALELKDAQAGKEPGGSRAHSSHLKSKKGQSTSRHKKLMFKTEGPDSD

[2] = biological target: Cellular tumor antigen p53 (Homo sapiens) (UniProt P04637); assay: Inhibition of p53 in human MOLT-4 cells assessed as suppression of gamma-irradiation-induced decrease in cell viability at 20 to 100 uM preincubated for 1 hr followed by 10 Gy 137Cs gamma-ray exposure and measured after 27 hrs by erythrosin B staining based dye exclusion assay; conditions: dose 20-100 µM, time 28.0 hrs
[3] = test system: MOLT-4; assay: Cytotoxicity against human MOLT-4 cells assessed as reduction in cell viability measured after 1 hr by erythrosin B staining based dye exclusion assay; assay type: toxicity; conditions: molt-4, 1 h
[4] = test system: MOLT-4; assay: Cytotoxicity against human MOLT-4 cells assessed as reduction in cell viability at 40 uM measured after 1 hr by erythrosin B staining based dye exclusion assay; assay type: toxicity; conditions: molt-4, 1 h
[5] = test system: MOLT-4; assay: Cytotoxicity against human MOLT-4 cells assessed as reduction in cell viability at 10 to 20 uM measured after 1 hr by erythrosin B staining based dye exclusion assay; assay type: toxicity; conditions: molt-4, 1 h, dose 10-20 µM
[6] = biological target: Cellular tumor antigen p53 (Homo sapiens) (UniProt P04637); assay: Inhibition of p53 in human MOLT-4 cells assessed as suppression of gamma-irradiation-induced decrease in cell viability at 40 uM preincubated for 1 hr followed by 10 Gy 137Cs gamma-ray exposure and measured after 27 hrs by erythrosin B staining based dye exclusion assay; conditions: time 28.0 hrs
[7] = biological target: Cellular tumor antigen p53 (Homo sapiens) (UniProt P04637); assay: Inhibition of p53 in human MOLT-4 cells assessed as suppression of gamma-irradiation-induced decrease in cell viability at 20 uM preincubated for 1 hr followed by 10 Gy 137Cs gamma-ray exposure and measured after 27 hrs by erythrosin B staining based dye exclusion assay; conditions: time 28.0 hrs
[8] = test system: MOLT-4; assay: Cytotoxicity against human MOLT-4 cells assessed as reduction in cell viability at 80 uM measured after 1 hr by erythrosin B staining based dye exclusion assay; assay type: toxicity; conditions: molt-4, 1 h
[9] = test system: MOLT-4; assay: Radioprotective activity in gamma-irradiated human MOLT-4 cells assessed as reduction in p53 expression at 3 to 100 uM preincubated for 1 hr followed by 10 Gy 137Cs gamma-ray exposure and measured after 6 hrs by Western blot analysis; assay type: functional, cell-based; conditions: dose 3-100 µM, time 7.0 hrs

| SMILES | inhibition [2] | Activity [3] | also measured |
| --- | --- | --- | --- |
| CNC(=O)C1=C(C)N(c2cccc(OC)c2)C(=O)/C1=C\c1ccc(C(=O)O)cc1 | – | – | inhibition [1]: Active |
| COC(=O)C1=C(C)N(c2ccccc2)C(=O)/C1=C\c1ccc(C(=O)O)cc1 | Active | – | – |
| COc1cccc(N2C(=O)/C(=C\c3ccc(C(=O)O)cc3)C(C(=O)OC(C)(C)C)=C2C)c1 | – | Toxic | – |
| COC(=O)C1=C(C)N(c2cccc(OC)c2)C(=O)/C1=C\c1ccc(Cl)cc1 | – | Toxic | – |
| COC(=O)C1=C(C)N(c2cccc(OC)c2)C(=O)/C1=C\c1ccc(C(=O)NO)cc1 | – | – | Activity [4]: Non-Toxic; Activity [5]: Toxic; inhibition [6]: Active |
| CCCCCCOc1cccc(N2C(=O)/C(=C\c3ccc(C(=O)O)cc3)C(C(=O)OC)=C2C)c1 | – | Toxic | – |
| COC(=O)C1=C(C)N(c2cccc(OC)c2)C(=O)/C1=C\c1cncnc1 | – | Toxic | – |
| COC(=O)C1=C(C)N(c2cccc(OC(C)C)c2)C(=O)/C1=C\c1ccc(C(=O)O)cc1 | – | – | inhibition [7]: Active; Activity [8]: Toxic; Activity [9]: Active |
| COC(=O)C1=C(C)N(c2cccc(OC)c2)C(=O)/C1=C\c1ccc(-c2nnn[nH]2)cc1 | Active | – | Activity [9]: Active |
| COC(=O)C1=C(C)N(c2cccc(OC)c2)C(=O)/C1=C\c1ccc(OC)cc1 | – | Toxic | – |
| COC(=O)C1=C(C)N(c2cccc(OC)c2)C(=O)C1=Cc1ccc(C(=O)O)cc1 | Active | – | – |
| COC(=O)C1=C(C)N(c2cccc(OC)c2)C(=O)/C1=C\c1ccncc1 | – | Toxic | – |
| COC(=O)C1=C(C)N(c2cccc(OC)c2)C(=O)/C1=C\c1ccc([N+](=O)[O-])cc1 | – | Toxic | – |
| CCCCCCOC(=O)C1=C(C)N(c2cccc(OC)c2)C(=O)/C1=C\c1ccc(C(=O)O)cc1 | – | Toxic | – |
| COC(=O)C1=C(C)N(c2cccc(OC)c2)C(=O)/C1=C\c1ccc(C(=O)O)cc1 | – | – | inhibition [7]: Active; Activity [8]: Toxic; Activity [9]: Active |
| COC(=O)C1=C(C)N(c2ccc(OC)cc2)C(=O)/C1=C\c1ccc(C(=O)O)cc1 | Active | – | – |
| COC(=O)C1=C(C)N(c2cccc(OC)c2)C(=O)/C1=C\c1ccccc1S(=O)(=O)[O-].[Na+] | – | Non-Toxic | – |
| CCOC(=O)C1=C(C)N(c2cccc(OC)c2)C(=O)/C1=C\c1ccc(C(=O)O)cc1 | Active | – | – |
| COC(=O)C1=C(C)N(c2cccc(O)c2)C(=O)/C1=C\c1ccc(C(=O)O)cc1 | – | – | inhibition [1]: Active |
| COC(=O)C1=C(C)N(c2ccccc2OC)C(=O)/C1=C\c1ccc(C(=O)O)cc1 | Active | – | – |
| COC(=O)C1=C(C)N(c2cccc(OC)c2)C(=O)/C1=C\c1cccc(C(=O)O)c1 | Active | – | – |
| COC(=O)C1=C(C)N(c2cccc(OC)c2)C(=O)/C1=C\c1ccc(S(N)(=O)=O)cc1 | – | Toxic | – |
| CCOC(=O)c1ccc(/C=C2\C(=O)N(c3cccc(OC)c3)C(C)=C2C(=O)OC)cc1 | – | Toxic | – |
| COC(=O)C1=C(C)N(c2cccc(OC)c2)C(=O)/C1=C\c1ccncc1O | – | Toxic | – |
| COC(=O)C1=C(C)N(c2cccc(OC)c2)C(=O)/C1=C/c1ccc(C(=O)O)cc1 | Active | – | – |

From ChEMBL document CHEMBL5126580, “Design, synthesis and biological evaluation of 2-pyrrolone derivatives as radioprotectors” (Bioorg Med Chem, 2022)
